Results: US20140228286A1, “SPECIFIC PDE4B-INHIBITORS FOR THE TREATMENT OF DIABETES MELLITUS” (BOEHRINGER INGELHEIM INTERNATIONAL GMBH, priority 2013, published 2014)

Target: T1, PDE4B (Homo sapiens, UniProt Q07343)
T1 construct: active site fragment comprising the amino acids 152-484
Test: PDE4B Scintillation Proximity (SPA) Assay
Format: biochemical
Settings: PDE4B active site fragment amino acids 152-484; [3H]cAMP; 30° C., one hour; read-out: Experimentally determined IC50-value for PDE4B inhibition
Description: The IC50-values of the compounds of the invention (Examples 1.1 to 1.47) with respect to their PDE4B-inhibiting ability have been determined with a Scintillation Proximity (SPA) Assay (GE Healthcare, No. TRKQ7090). The Scintillation Proximity (SPA) Assay is based on the detection of the different affinities of the cyclic 3′-5′adenosine monophosphate (cAMP, low affinity) and the linear 5′-adenosine monophosphate (AMP, high affinity) to yttrium-silicate-scintillator beads. The cAMP-specific phosphodiesterase (PDE) PDE4B cleaves the 3′-phosphodiester bond of the tritium-labelled-[^3H]cAMP to the [^3H]5′-AMP. This [^3H]5′-AMP associates with the scintillator beads because of their higher affinity and causes scintillations (light flashes) which can be measured in a Wallac Microbeta Scintillation Counter.
10 μl of a [^3H]cAMP-solution (0.05 μCi in H2O, 10-30 Ci/mmol) are added to 89 μl of a PDE4B-enzyme-solution (active site fragment comprising the amino acids 152-484; 0.15-0.18 ng) in assay buffer (50 mM Tris HCl pH 7.5; 8.3 mM MgCl2; 1,7 mM ethylene glyclol tetraacetic acid (EGTA); 0.25 mg/ml bovine serum albumin (BSA)) and this mixture is incubated at 30° C. for one hour
a) without the compound to be tested (in the presence of 1 μl dimethylsulfoxide (DMSO), corresponding to 1% DMSO) and b) in the presence of the compound to be tested in a concentration of 125 μM, 25 μM, 5 μM, 1 μM, 200 nM, 40 nM, 8 nM, 1.6 nM, 0.32 nM, 0.064 nM, 0.0128 nM (dilution series in 5er-steps beginning from 125 μM until 0.0128 nM, in the presence of 1% DMSO).
After this incubation the reaction is stopped by the addition of 50 μl of bead-solution (500 mg beads/35 ml H2O, 18 mM zinc sulfate). In the following 45 minutes the beads have the opportunity to form a sediment. After that the scintillations are measured in the scintillation counter. If the tested compound is able to inhibit the enzymatic activity of the PDE4B-enzyme, less [^3H]AMP depending on the concentration of the tested compound is produced and less scintillations are measurable. […] The IC50-value stands for the compound concentration at which the PDE4B enzyme activity is inhibited to a half maximal value. Therefore the lower the IC50-value is the better is the PDE4B inhibition.

T1 sequence (Q07343 324-656): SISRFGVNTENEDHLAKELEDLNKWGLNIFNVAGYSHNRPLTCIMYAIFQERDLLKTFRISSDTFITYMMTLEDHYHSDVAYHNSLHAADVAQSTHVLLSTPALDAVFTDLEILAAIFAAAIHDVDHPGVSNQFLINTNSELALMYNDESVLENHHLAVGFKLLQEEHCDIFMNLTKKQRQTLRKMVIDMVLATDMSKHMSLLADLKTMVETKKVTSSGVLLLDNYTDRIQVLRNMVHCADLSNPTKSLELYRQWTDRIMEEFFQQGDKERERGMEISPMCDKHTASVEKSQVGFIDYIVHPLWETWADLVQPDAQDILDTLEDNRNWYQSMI

**Q.** How did the IC50 turn out when CN1C[C@@H](Nc2nc(N3CCC(Oc4ccc(F)cc4)CC3)nc3c2[S+]([O-])CC3)CCC1=O (stereo partly drawn) [Example 1.22, (S)-5-{2-[4-(4-fluorophenoxy)-piperidin-1-yl]-5-oxo-6,7-dihydro-5H-5λ4-thieno[3,2-d]pyrimidin-4-ylamino}-1-methylpiperidin-2-one] was run?
**A.** Its IC50 is 2.3 nM.

**Q.** [O-][S+]1CCc2nc(N3CCC(Oc4ccc(C5=NCCO5)cc4)CC3)nc(NC3CCOCC3)c21 (stereo not drawn) [Example 1.23, (2-{4-[4-(4,5-dihydrooxazol-2-yl)-phenoxy]-piperidin-1-yl}-5-oxo-6,7-dihydro-5H-5λ^4-thieno[3,2-d]pyrimidin-4-yl)-(tetrahydropyran-4-yl)-amine] was tested. Which IC50 did it give?
**A.** Its IC50 is 1.7 nM.

**Q.** O=C(O)c1ccc(OC2CCN(c3nc4c(c(NC5CCOCC5)n3)[S+]([O-])CC4)CC2)cc1 (stereo not drawn) [Example 1.24, 4-{1-[5-oxo-4-(tetrahydropyran-4-ylamino)-6,7-dihydro-5H-5λ^4-thieno[3,2-d]pyrimidin-2-yl]-piperidin-4-yloxy}-benzoic acid] was tested. Which IC50 did it give?
**A.** Its IC50 is 7 nM.

**Q.** Which IC50 does the source give for CC(C)(O)C1(Nc2nc(N3CCC(c4ccc(Cl)cc4)CC3)nc3c2[S+]([O-])CC3)CC1 (stereo not drawn) [Example 1.25, 2-(1-{2-[4-(4-chlorophenyl)-piperidin-1-yl]-5-oxo-6,7-dihydro-5H-5λ^4-thieno[3,2-d]pyrimidin-4-ylamino}-cyclopropyl)-propan-2-ol] here?
**A.** The IC50 was 1.8 nM.

**Q.** Which IC50 does the source give for Cn1cc(C2CCN(c3nc4c(c(NC5CCOCC5)n3)[S+]([O-])CC4)CC2)c2cc(C(C)(C)C)ccc21 (stereo not drawn) [Example 1.26, {2-[4-(5-tert-butyl-1-methyl-1H-indol-3-yl)-piperidin-1-yl]-5-oxo-6,7-dihydro-5H-5λ^4-thieno[3,2-d]pyrimidin-4-yl}-(tetrahydropyran-4-yl)-amine] here?
**A.** The IC50 was 38 nM.

**Q.** For Cn1nc(C2CCN(c3nc4c(c(NC5CCOCC5)n3)[S+]([O-])CC4)CC2)cc1-c1ccco1 (stereo not drawn) [Example 1.27], which IC50 is on record?
**A.** The IC50 was 21 nM.

**Q.** CN1C[C@@H](Nc2nc(N3CCC(Oc4ccc(C5=NCCO5)cc4)CC3)nc3c2[S+]([O-])CC3)CCC1=O (stereo partly drawn) [Example 1.28, (S)-5-(2-{4-[4-(4,5-dihydrooxazol-2-yl)-phenoxy]-piperidin-1-yl}-5-oxo-6,7-dihydro-5H-5λ^4-thieno[3,2-d]pyrimidin-4-ylamino)-1-methylpiperidin-2-one] was tested. Which IC50 did it give?
**A.** Its IC50 is 0.19 nM.

**Q.** Cn1nc(-c2ccco2)cc1C1CCN(c2nc3c(c(NC4CCOCC4)n2)[S+]([O-])CC3)CC1 (stereo not drawn) [Example 1.29, {2-[4-(5-furan-2-yl-2-methyl-2H-pyrazol-3-yl)-piperidin-1-yl]-5-oxo-6,7-dihydro-5H-5λ^4-thieno[3,2-d]pyrimidin-4-yl}-(tetrahydropyran-4-yl)-amine] was tested. Which IC50 did it give?
**A.** The IC50 was 1.7 nM.

**Q.** Which IC50 does the source give for Cn1c(C2CCN(c3nc4c(c(NC5CCOCC5)n3)[S+]([O-])CC4)CC2)nc2cnccc21 (stereo not drawn) [Example 1.30, {2-[4-(1-methyl-1H-imidazo[4,5-c]pyridin-2-yl)-piperidin-1-yl]-5-oxo-6,7-dihydro-5H-5λ^4-thieno[3,2-d]pyrimidin-4-yl}-(tetrahydropyran-4-yl)-amine] here?
**A.** Its IC50 is 33.4 nM.

**Q.** For COCC(=O)NCC1(c2ccccc2)CCN(c2nc3c(c(NC4CCOCC4)n2)[S+]([O-])CC3)CC1 (stereo not drawn) [Example 1.31, 2-methoxy-N-{1-[5-oxo-4-(tetrahydropyran-4-ylamino)-6,7-dihydro-5H-5λ^4-thieno[3,2-d]pyrimidin-2-yl]-4-phenylpiperidin-4-ylmethyl}-acetamide], which IC50 is on record?
**A.** Its IC50 is 5.7 nM.

**Q.** For CN(C(=O)c1ccc(C2CCN(c3nc4c(c(NC5CCOCC5)n3)[S+]([O-])CC4)CC2)cc1)C1CC1 (stereo not drawn) [Example 1.32, N-cyclopropyl-N-methyl-4-{1-[5-oxo-4-(tetrahydropyran-4-ylamino)-6,7-dihydro-5H-5λ^4-thieno[3,2-d]pyrimidin-2-yl]-piperidin-4-yl}-benzamide], which IC50 is on record?
**A.** Its IC50 is 8.5 nM.

**Q.** With CN(C(=O)c1ccc(OC2CCN(c3nc4c(c(NC5CCOCC5)n3)[S+]([O-])CC4)CC2)cc1)C1CC1 (stereo not drawn) [Example 1.33, N-cyclopropyl-N-methyl-4-{1-[5-oxo-4-(tetrahydropyran-4-ylamino)-6,7-dihydro-5H-5λ^4-thieno[3,2-d]pyrimidin-2-yl]-piperidin-4-yloxy}-benzamide] as the compound, how does the IC50 read?
**A.** The IC50 was 7.5 nM.

**Q.** With [O-][S+]1CCc2nc(N3CCC(Oc4ccncc4)CC3)nc(NC3CCOCC3)c21 (stereo not drawn) [Example 1.34, {5-oxo-2-[4-(pyridin-4-yloxy)-piperidin-1-yl]-6,7-dihydro-5H-5λ^4-thieno[3,2-d]pyrimidin-4-yl}-(tetrahydropyran-4-yl)-amine] as the compound, how does the IC50 read?
**A.** Its IC50 is 8 nM.

**Q.** For Cc1oc(C2CCN(c3nc4c(c(N[C@H]5CCC(=O)N(C)C5)n3)[S+]([O-])CC4)CC2)nc1-c1ccccc1 (stereo partly drawn) [Example 1.36, (S)-1-methyl-5-{2-[4-(5-methyl-4-phenyloxazol-2-yl)-piperidin-1-yl]-5-oxo-6,7-dihydro-5H-5λ^4-thieno[3,2-d]pyrimidin-4-ylamino}-piperidin-2-one], which IC50 is on record?
**A.** The IC50 was 0.4 nM.

**Q.** With Cc1oc(C2CCN(c3nc4c(c(NC5(CO)CC5)n3)[S+]([O-])CC4)CC2)nc1-c1ccccc1 (stereo not drawn) [Example 1.37, (1-{2-[4-(5-methyl-4-phenyloxazol-2-yl)-piperidin-1-yl]-5-oxo-6,7-dihydro-5H-5λ^4-thieno[3,2-d]pyrimidin-4-ylamino}-cyclopropyl)-methanol] as the compound, how does the IC50 read?
**A.** Its IC50 is 3.5 nM.

**Q.** Which IC50 does the source give for CN1C[C@@H](Nc2nc(N3CCC(c4nc(-c5ccccc5)c(-c5ccccc5)o4)CC3)nc3c2[S+]([O-])CC3)CCC1=O (stereo partly drawn) [Example 1.38, (S)-5-{2-[4-(4,5-diphenyloxazol-2-yl)-piperidin-1-yl]-5-oxo-6,7-dihydro-5H-5λ^4-thieno[3,2-d]pyrimidin-4-ylamino}-1-methylpiperidin-2-one] here?
**A.** Its IC50 is 0.2 nM.

**Q.** How did the IC50 turn out when [O-][S+]1CCc2nc(N3CCC(CO)(c4ccc(Cl)cc4)CC3)nc(NC3CCOCC3)c21 (stereo not drawn) [Example 1.39, {4-(4-chlorophenyl)-1-[5-oxo-4-(tetrahydropyran-4-ylamino)-6,7-dihydro-5H-5λ^4-thieno[3,2-d]pyrimidin-2-yl]-piperidin-4-yl}-methanol] was run?
**A.** The IC50 was 1.8 nM.

**Q.** Which IC50 does the source give for Cc1nc(C2CCN(c3nc4c(c(NC5(CO)CC5)n3)[S+]([O-])CC4)CC2)oc1-c1ccc(Cl)cc1 (stereo not drawn) [Example 1.40, [1-(2-{4-[5-(4-chlorophenyl)-4-methyloxazol-2-yl]-piperidin-1-yl}-5-oxo-6,7-dihydro-5H-5λ^4-thieno[3,2-d]pyrimidin-4-ylamino)-cyclopropyl]-methanol] here?
**A.** Its IC50 is 0.6 nM.

**Q.** [O-][S+]1CCc2nc(N3CCC(O)(c4ccc(Cl)cc4)CC3)nc(NC3CCOCC3)c21 (stereo not drawn) [Example 1.41, 4-(4-chlorophenyl)-1-[5-oxo-4-(tetrahydropyran-4-ylamino)-6,7-dihydro-5H-5λ^4-thieno[3,2-d]pyrimidin-2-yl]-piperidin-4-ol] was tested. Which IC50 did it give?
**A.** The IC50 was 6.7 nM.

**Q.** COC1(c2ccc(Cl)cc2)CCN(c2nc3c(c(NC4CCOCC4)n2)[S+]([O-])CC3)CC1 (stereo not drawn) [Example 1.42, {2-[4-(4-chlorophenyl)-4-methoxypiperidin-1-yl]-5-oxo-6,7-dihydro-5H-5λ^4-thieno[3,2-d]pyrimidin-4-yl}-(tetrahydropyran-4-yl)-amine] was tested. Which IC50 did it give?
**A.** The IC50 was 3.8 nM.

**Q.** N#Cc1ccc(OC2CCN(c3nc4c(c(NC5(CO)CC5)n3)[S+]([O-])CC4)CC2)cc1 (stereo not drawn) [Example 1.43, 4-{1-[4-(1-hydroxymethylcyclopropylamino)-5-oxo-6,7-dihydro-5H-5λ^4-thieno[3,2-d]pyrimidin-2-yl]-piperidin-4-yloxy}-benzonitrile] was tested. Which IC50 did it give?
**A.** Its IC50 is 3.5 nM.

**Q.** [O-][S+]1CCc2nc(N3CCC(c4nc5c(o4)CCCC5)CC3)nc(NC3CCOCC3)c21 (stereo not drawn) [Example 1.44] was tested. Which IC50 did it give?
**A.** The IC50 was 2.7 nM.

**Q.** Which IC50 does the source give for CN1C[C@@H](Nc2nc(N3CCC(c4ccc(Cl)cc4)CC3)nc3c2S(=O)(=O)CC3)CCC1=O [Example 1.45, (S)-5-{2-[4-(4-chlorophenyl)-piperidin-1-yl]-5,5-dioxo-6,7-dihydro-5H-5λ^6-thieno[3,2-d]pyrimidin-4-ylamino}-1-methylpiperidin-2-one] here?
**A.** Its IC50 is 54 nM.

**Q.** For [O-][S+]1CCc2nc(N3CCC(c4ccc(Cl)cc4)CC3)nc(NC3(CO)CCC3)c21 (stereo not drawn) [Example 1.47, (1-{2-[4-(4-Chloro-phenyl)-piperidin-1-yl]-5-oxo-6,7-dihydro-5H-5λ^4-thieno[3.2-d]pyrimidin-4-yl-amino}-cyclobutyl)-methanol], which IC50 is on record?
**A.** Its IC50 is 4.3 nM.
